In patent US12157730B2, “Heteroaryl derivative, method for producing same, and pharmaceutical composition comprising same as effective component” (VORONOI INC., priority 2019, dated 2024):

Biological target: T1, Ba/F3 cell EGFR Exon20 ins NPH (Homo sapiens, UniProt P00533, INS773NPH)
T1 construct: expressed in transfected cells; host or cells: Ba/F3
Experiment: Ba/F3 cell proliferation suppression, EGFR Exon20 ins NPH
Assay type: cell-based
Details: GI50 class; Ba/F3 cell line with NPH inserted at Exon20 of EGFR; 72 hours
Summary of the method: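 Seed 3000–5000 cells/well; after 24 h add compound (12 conc., 0.3 nM–50 um final); incubate 72 h; add CellTiter-Glo, 10 min room temperature; read luminescence; GI50 from % growth vs control, triplicate.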

Row | SMILES | Ba/F3 (NPH) Activity
1 | C=CC(=O)Nc1cc(Nc2cc(N3OCC[C@@H]3c3c(F)ccc(F)c3F)ncn2)c(OC)cc1N1CCC(N2CCN(C3CC3)[C@@H](C)C2)CC1 [Example 167, N-(2-(4-((S)-4-cyclopropyl-3-methylpiperazine-1-yl)piperidine-1-yl)-4-methoxy-5-((6-((R)-3-(2,3,6-trifluorophenyl)isoxazolidine-2-yl)pyrimidine-4-yl)amino)phenyl)acrylamide] | A (GI50 < 50 nM)
2 | C=CC(=O)Nc1cc(Nc2cc(N3OCC[C@@H]3c3cccc(F)c3)ncn2)c(OC)cc1N1CCC(N2CCN(C(C)=O)CC2)CC1 [compound 741, N-(2-(4-(4-acetylpiperazine-1-yl)piperidine-1-yl)-5-((6-((R)-3-(3-fluorophenyl)isoxazolidine-2-yl)pyrimidine-4-yl)amino)-4-methoxyphenyl) acrylamide] | A (GI50 < 50 nM)
3 | C#Cc1cccc([C@H]2CCON2c2cc(Nc3cc(NC(=O)C=C)c(N4CCN(C5CC5)CC4)cc3OC)ncn2)c1 [compound 654, N-(2-(4-cyclopropylpiperazine-1-yl)-5-((6-((R)-3-(3-ethynylphenyl)isoxazolidine-2-yl)pyrimidine-4-yl)amino)-4-methoxyphenyl) acrylamide] | B (50 nM ≤ GI50 < 500 nM)
4 | C=CC(=O)Nc1cc(Nc2cc(N3OCC[C@@H]3c3ccc(Cl)cc3F)ncn2)c(OC)cc1N1CC[C@@H](N2CCOCC2)C1 [compound 406, N-(5-((6-((R)-3-(4-chloro-2-fluorophenyl)isoxazolidine-2-yl)pyrimidine-4-yl)amino)-4-methoxy-2-((R)-3-morpholinopyrolidine-1-yl)phenyl)acrylamide] | A (GI50 < 50 nM)
5 | C=CC(=O)Nc1cc(Nc2cc(N3OCC[C@@H]3c3ccc(F)c(F)c3F)ncn2)c(OC)cc1N1CC[C@@H](N(C)C)C1 [compound 622, N-(2-((R)-3-(dimethylamino)pyrolidine-1-yl)-4-methoxy-5-((6-((R)-3-(2,3,4-trifluorophenyl)isoxazolidine-2-yl)pyrimidine-4-yl)amino)phenyl)acrylamide] | C (500 nM ≤ GI50 < 5000 nM)
6 | C=CC(=O)Nc1cc(Nc2cc(N3OCC[C@@H]3Cc3cccc(F)c3)ncn2)c(OC)cc1N1CCC(N2CCN(C3CC3)[C@@H](C)C2)CC1 [compound 993, N-(2-(4-((S)-4-cyclopropyl-3-methylpiperazine-1-yl)piperidine-1-yl)-5-((6-((S)-3-(3-fluorobenzyl)isoxazolidine-2-yl)pyrimidine-4-yl)amino)-4-methoxyphenyl) acrylamide] | A (GI50 < 50 nM)
7 | C=CC(=O)Nc1cc(Nc2cc(N3OCC[C@@H]3c3ccc(F)cc3F)ncn2)c(OC)cc1N1CCN(C)CC1 [compound 326, N-(5-((6-((R)-3-(2,4-difluorophenyl)isoxazolidine-2-yl)pyrimidine-4-yl)amino)-4-methoxy-2-(4-methylpiperazine-1-yl)phenyl)acrylamide] | A (GI50 < 50 nM)
8 | C=CC(=O)Nc1cc(Nc2cc(N3OCC[C@@H]3c3cc(F)ccc3F)ncn2)c(OC)cc1N1CCC(N2CCN(C3CC3)CC2)CC1 [Example 61, N-(2-(4-(4-cyclopropylpiperazine-1-yl)piperidine-1-yl)-5-((6-((R)-3-(2,5-difluorophenyl)isoxazolidine-2-yl)pyrimidine-4-yl)amino)-4-methoxyphenyl) acrylamide;] | A (GI50 < 50 nM)
9 | C=CC(=O)Nc1cc(Nc2cc(N3OCC[C@@H]3c3cccc(Cl)c3)ncn2)c(OC)cc1N1CCC(N2CCN(CC)CC2)CC1 [compound 412, N-(5-((6-((R)-3-(3-chlorophenyl)isoxazolidine-2-yl)pyrimidine-4-yl)amino)-2-(4-(4-ethylpiperazine-1-yl)piperidine-1-yl)-4-methoxyphenyl) acrylamide] | A (GI50 < 50 nM)
10 | C=CC(=O)Nc1cc(Nc2cc(N3OCC[C@@H]3c3cc(F)cc(F)c3)ncn2)c(OC)cc1N1CCC(N2CCN(C3CCCC3)CC2)CC1 [Example 98, N-(2-(4-(4-cyclopentylpiperazine-1-yl)piperidine-1-yl)-5-((6-((R)-3-(3,5-difluorophenyl)isoxazolidine-2-yl)pyrimidine-4-yl)amino)-4-methoxyphenyl) acrylamide] | A (GI50 < 50 nM)
11 | C=CC(=O)Nc1cc(Nc2cc(N3OCC[C@@H]3c3ccc(F)c(Cl)c3)ncn2)c(OC)cc1N1CCC(N2CC[C@H](N(C)C)C2)CC1 [compound 764, N-(5-((6-((R)-3-(3-chloro-4-fluorophenyl)isoxazolidine-2-yl)pyrimidine-4-yl)amino)-2-(4-((S)-3-(dimethylamino)pyrolidine-1-yl)piperidine-1-yl)-4-methoxyphenyl) acrylamide] | A (GI50 < 50 nM)
12 | C=CC(=O)Nc1cc(Nc2cc(N3OCC[C@@H]3Cc3cccc(Cl)c3Cl)ncn2)c(OC)cc1N1CCC(N2C[C@@H]3C[C@H]2CO3)CC1 [compound 1012, N-(2-(4-((1S,4S)-2-oxa-5-azabicyclo [2.2.1]heptane-5-yl)piperidine-1-yl)-5-((6-((S)-3-(2,3-dichlorobenzyl)isoxazolidine-2-yl)pyrimidine-4-yl)amino)-4-methoxyphenyl) acrylamide] | A (GI50 < 50 nM)
13 | C=CC(=O)Nc1cc(Nc2cc(N3OCC[C@H]3Cc3ccccc3)ncn2)c(OC)cc1N1CCN(CCN(C)C)CC1 [compound 976, N-(5-((6-((R)-3-benzylisoxazolidine-2-yl)pyrimidine-4-yl)amino)-2-(4-(2-(dimethylamino)ethyl)piperazine-1-yl)-4-methoxyphenyl) acrylamide] | C (500 nM ≤ GI50 < 5000 nM)
14 | C=CC(=O)Nc1cc(Nc2cc(N3OCC[C@@H]3c3cc(F)cc(F)c3)ncn2)c(OC)cc1N1CCC(N2CCC(F)(F)CC2)CC1 [compound 718, N-(2-(4,4-difluoro-[1,4'-bipiperidine]-1'-yl)-5-((6-((R)-3-(3,5-difluorophenyl)isoxazolidine-2-yl)pyrimidine-4-yl)amino)-4-methoxyphenyl) acrylamide] | A (GI50 < 50 nM)
15 | C=CC(=O)Nc1cc(Nc2cc(N3OCC[C@@H]3c3ccc(Cl)cc3)ncn2)c(OC)cc1N1CC[C@H](N2CCOCC2)C1 [compound 734, N-(5-((6-((R)-3-(4-chlorophenyl)isoxazolidine-2-yl)pyrimidine-4-yl)amino)-4-methoxy-2-((S)-3-morpholinopyrolidine-1-yl)phenyl)acrylamide] | B (50 nM ≤ GI50 < 500 nM)
16 | C=CC(=O)Nc1cc(Nc2cc(N3OCC[C@@H]3c3cccc(C#N)c3)ncn2)c(OC)cc1N1CC[C@@H](N(C)C)C1 [compound 395, N-(5-((6-((R)-3-(3-cyanophenyl)isoxazolidine-2-yl)pyrimidine-4-yl)amino)-2-((R)-3-(dimethylamino)pyrolidine-1-yl)-4-methoxyphenyl) acrylamide] | B (50 nM ≤ GI50 < 500 nM)
17 | C=CC(=O)Nc1cc(Nc2cc(N3OCC[C@@H]3c3cccc(C#N)c3)ncn2)c(OC)cc1N1CCC(N2CCN(C3CC3)C[C@H]2C)CC1 [Example 131, N-(5-((6-((R)-3-(3-cyanophenyl)isoxazolidine-2-yl)pyrimidine-4-yl)amino)-2-(4-((R)-4-cyclopropyl-2-methylpiperazine-1-yl)piperidine-1-yl)-4-methoxyphenyl) acrylamide] | A (GI50 < 50 nM)
18 | C=CC(=O)Nc1cc(Nc2cc(N3OCC[C@H]3Cc3ccccc3)ncn2)c(OC)cc1N1CCN(C)CC1 [compound 968, N-(5-((6-((R)-3-benzylisoxazolidine-2-yl)pyrimidine-4-yl)amino)-4-methoxy-2-(4-methylpiperazine-1-yl)phenyl)acrylamide] | C (500 nM ≤ GI50 < 5000 nM)
19 | C=CC(=O)Nc1cc(Nc2cc(N3OCC[C@@H]3c3ccc(Cl)c(F)c3)ncn2)c(OC)cc1N1CCN(C2CC2)CC1 [compound 364, N-(5-((6-((R)-3-(4-chloro-3-fluorophenyl)isoxazolidine-2-yl)pyrimidine-4-yl)amino)-2-(4-cyclopropylpiperazine-1-yl)-4-methoxyphenyl) acrylamide] | A (GI50 < 50 nM)
20 | C=CC(=O)Nc1cc(Nc2cc(N3OCC[C@@H]3c3cccc(Cl)c3C)ncn2)c(OC)cc1N1CCN(C)CC1 [compound 584, N-(5-((6-((R)-3-(3-chloro-2-methylphenyl)isoxazolidine-2-yl)pyrimidine-4-yl)amino)-4-methoxy-2-(4-methylpiperazine-1-yl)phenyl)acrylamide] | A (GI50 < 50 nM)
21 | C=CC(=O)Nc1cc(Nc2cc(N3OCC[C@@H]3c3cccc(Cl)c3Cl)ncn2)c(OC)cc1N1CCN(C2CCCC2)CC1 [compound 563, N-(2-(4-cyclopentylpiperazine-1-yl)-5-((6-((R)-3-(2,3-dichlorophenyl)isoxazolidine-2-yl)pyrimidine-4-yl)amino)-4-methoxyphenyl) acrylamide] | A (GI50 < 50 nM)
22 | C=CC(=O)Nc1cc(Nc2cc(N3OCC[C@@H]3c3cccc(F)c3)ncn2)c(OC)cc1N1CCC(N2CCN(C)CC2)CC1 [Example 31, N-(5-((6-((R)-3-(3-fluorophenyl)isoxazolidine-2-yl)pyrimidine-4-yl)amino)-4-methoxy-2-(4-(4-methylpiperazine-1-yl)piperidine-1-yl)phenyl) acrylamide] | A (GI50 < 50 nM)
23 | C=CC(=O)Nc1cc(Nc2cc(N3OCC[C@@H]3c3cccc(C)c3F)ncn2)c(OC)cc1N1CCC(N2C[C@H]3C[C@@H]2CO3)CC1 [compound 320, N-(2-(4-((1R,4R)-2-oxa-5-azabicyclo[2.2.1]heptane-5-yl)piperidine-1-yl)-5-((6-((R)-3-(2-fluoro-3-methylphenyl)isoxazolidine-2-yl)pyrimidine-4-yl)amino)-4-methoxyphenyl) acrylamide] | A (GI50 < 50 nM)
